Measurements from patent publication US12054449B2, “Phenylcarbamate crystalline form and method for manufacturing the same” (BIO-PHARM SOLUTIONS CO., LTD., priority 2021, dated 2024).
Each block holds one compound with its values, some of them ahead of it.

Tests used:
[1] = Competitive slurry experiment for Pattern 1 and Pattern 3; type: physicochemical; conditions: 4 days
Experimental: To investigate the relative thermodynamic stability of various crystalline form patterns at room temperature and 50° C., competitive slurry experiments were carried out.
A mixture of Pattern 1 and Pattern 3 (ED01748-028-003-00, 4×20 mg) was dispensed into vials. They were treated with 250 μL of a saturated solution of Pattern 1 (ED01748-006-001-00) in DIPE or heptane (50 mg of ED01748-006-001-00 was treated with DIPE or heptane and heated at 50° C., a portion was removed as needed, and the resulting product was filtered through a 0.45 μm syringe filter, thereby forming a slurry). The produced slurry was stirred at room temperature or 50° C. After analysis, the solid was returned to the vial, and an additional saturated solution was added as needed to maintain the slurry. After 4 days, the purity of the material was confirmed by UPLC.

[2] = Change of crystalline form on standing or drying (XRPD); type: physicochemical
Experimental: XRPD patterns were detected by CuKα irradiation (30 kV, 10 mA) using a Bruker AXS D2 diffractometer. The analysis was performed using θ-θ geometry and a LynxEye detector at 5 to 42° 2θ with a step size of 0.024° 2θ at 0.1 sec/step.
Samples were run at ambient conditions and prepared as flat specimens using powder received without grinding. About 1 to 2 mg of the sample was lightly pressed on a silicon wafer to obtain a flat surface.

UPLC purity of slurry material after 4 days ([1]; DIPE samples, RT and 50° C.): 98%
UPLC purity of slurry material after 4 days ([1]; heptane sample): 98.5%
SMILES: C[C@H](OC(N)=O)[C@@H](O)c1ccccc1Cl [ED01748-028-003-00, 1-(2-chlorophenyl)-(S)-1-hydroxypropyl-(S)-2-carbamate]

SMILES: C[C@H](OC(N)=O)[C@@H](O)c1ccccc1Cl [Pattern 4, 1-(2-chlorophenyl)-(S)-1-hydroxypropyl-(S)-2-carbamate]
Change in form by XRPD on drying ([2]; brief drying whilst standing in the open vial): change in form by XRPD from Pattern 4 to a mixture of Pattern 1 and Pattern 3

SMILES: C[C@H](OC(N)=O)[C@@H](O)c1ccccc1Cl [Pattern 6, 1-(2-chlorophenyl)-(S)-1-hydroxypropyl-(S)-2-carbamate]
Form conversion by XRPD ([2]; Pattern 6 material from anisole, stood overnight): converted to a mixture of Pattern 6 and Pattern 1
Form conversion by XRPD ([2]; Pattern 6 material from toluene): converted to a mixture of Pattern 6 and Pattern 3

Behaviour on standing [2]: variable behaviour on standing
SMILES: C[C@H](OC(N)=O)[C@@H](O)c1ccccc1Cl [Pattern 7, 1-(2-chlorophenyl)-(S)-1-hydroxypropyl-(S)-2-carbamate]

Change on standing ([2]; Pattern 8 from chloroform and heptane): observed to change on standing
change on standing o/n ([2]; solid from Exp. 10, chloroform/Heptane): No change
change on standing o/n ([2]; solid from Exp. 14, DCM/Heptane): Small
SMILES: C[C@H](OC(N)=O)[C@@H](O)c1ccccc1Cl [Pattern 8, 1-(2-chlorophenyl)-(S)-1-hydroxypropyl-(S)-2-carbamate]

change on standing o/n ([2]; solid from Exp. 9, chloroform/Toluene): No change
change on standing o/n ([2]; solid from Exp. 13, DCM/Toluene): No change
SMILES: C[C@H](OC(N)=O)[C@@H](O)c1ccccc1Cl [Pattern 9, 1-(2-chlorophenyl)-(S)-1-hydroxypropyl-(S)-2-carbamate]
